Measurements reported in patent US5576290A, “Compositions and methods for the diagnosis and treatment of psychogenic erectile dysfunction” (Competitive Technologies, Inc., priority 1994, dated 1996).
Bridge positions count the residues as written; N and C are the ends. Square brackets hold non-standard residues; d marks the D form. Ends that are not written are not given here. Peptide text beside a SMILES is read from it. Nle = CCCC[C@H](N)C(=O)O

Legend:
human volunteers = assay: Erectile response after subcutaneous injection of peptide in human volunteers; format: in vivo
Method: The peptides described herein were prepared by sterile methods to a final concentration of 10 mg of peptide per ml of physiological saline. In addition to a full dose providing 10 mg of the peptide to the individual, doses of 0.1 to 0.3 ml (providing 1 mg to 3 mg of the peptide to each individual) of this stock material were also injected into volunteers, with a dose of 0.1 to 0.2 ml being the most often used dosage.
The onset of erection occurred about 1 to 2 hours after injection. […] A dose of 3.75 mg given to volunteers produced a long lasting erection of 4 to 6 hour duration. […] In some, this discomfort was considerable. […] Accordingly, although dosages of from about 1.0 mg to about 10.0 mg show the desired activity according to the present invention, it is preferred that the lower ranges of dosage which bring about the desired erection without undesirable side effects be used. Accordingly, it is preferred that dosages of about 1.5 mg to 2.5 mg of peptide be provided when the route of administration is subcutaneous or intramuscular. With other routes of administration, this range may require adjustment, however, it is still preferred that the lower range of adjusted effective dosages for the selected route of administration be used.

patients = conditions: cited from earlier work
men = conditions: oral, a few hundred men treated for depression, early 1980s; cited from earlier work
[1] = injection, alone or combined with phentolamine

CCCC[C@H](NC(C)=O)C(=O)N[C@H]1CC(=O)NCCCC[C@@H](C(=O)NCC(N)=O)NC(=O)[C@H](Cc2c[nH]c3ccccc23)NC(=O)[C@H](CCCNC(=N)N)NC(=O)[C@@H](Cc2ccccc2)NC(=O)[C@H](Cc2c[nH]cn2)NC1=O (Ac-[Nle]DH[dF]RWKG-NH2; lactam 2-7)
duration of erection (sustained intermittently) (human volunteers; 1.25 mg dose): up to 6 hours | induction of erection (human volunteers; 1.25 mg dose): induced an erection | onset of erection (human volunteers; 1.25 mg dose, compared with 2.5 mg): took longer to initially occur | time to erection following administration (human volunteers; 2.5 mg): ≤ 60 min | stomach discomfort (human volunteers; 2.5 mg and 1.25 mg doses): No stomach discomfort was experienced

COc1ccc(Cc2nccc3cc(OC)c(OC)cc23)cc1OC [papaverine]
share of patients in whom erection is induced (patients; [1]): about 70% | side effects (patients; [1]): pain, ecchymosis, and occasional episodes of priapism

O=c1n(CCCN2CCN(c3cccc(Cl)c3)CC2)nc2ccccn12 [trazodone]
erections as unexpected effect (men): prolonged and painful erections

vasoactive intestinal peptide (HSDAVFTDNYTRLRKQMAVKKYLNSILN; ends and bridges not checked; UniProt P01282 125-152, looked up)
induction of full erection necessary for intercourse (patients; intrapenile injections, trials): proven ineffective
